Entries after “also recorded” stand apart in the source; their conditions may differ.
Experiments:
DIO mice = assay: Hepatic lipid accumulation, Oil Red O staining; type: in vivo, mouse
Description: FIG. 9(A). lean mice. FIG. 9(B). DIO mice, FIG. 9(C). berberine, and FIG. 9(D). DY319. Intracellular lipids were stained with Oil Red O and visualized by phase-contrast microscopy (×200 magnification).
Cells on day 7 were washed twice with PBS, fixed with 10% neutral buffered formalin for 1 h at room temperature, washed with PBS and then dried completely. The fixed cells were stained with Oil Red O in an isopropanol/distilled water (6:4) solution for 30 min at room temperature and then washed twice with distilled water. The stained lipid droplets were observed, and microscopic images were obtained from randomly selected fields under a phase contrast microscope (AX70; Olympus, Tokyo, Japan) equipped with a digital camera and processed using ImagePro Plus software (Media Cybernetics, Silver Spring, Md., USA).

NCI-H716 cells = conditions: cited from earlier work
db/db mice = conditions: mouse, in vivo; cited from earlier work
[1] = in vivo; cited from earlier work
TGR5 = target: T1, TGR5 (Homo sapiens, UniProt Q8TDU6); assay: TGR5 luciferase reporter (pCRE-luc) / cAMP assay in HEK293 cells overexpressing TGR5; type: cell-based
T1 construct: expressed in transfected cells
T1 sequence (Q8TDU6 1-330): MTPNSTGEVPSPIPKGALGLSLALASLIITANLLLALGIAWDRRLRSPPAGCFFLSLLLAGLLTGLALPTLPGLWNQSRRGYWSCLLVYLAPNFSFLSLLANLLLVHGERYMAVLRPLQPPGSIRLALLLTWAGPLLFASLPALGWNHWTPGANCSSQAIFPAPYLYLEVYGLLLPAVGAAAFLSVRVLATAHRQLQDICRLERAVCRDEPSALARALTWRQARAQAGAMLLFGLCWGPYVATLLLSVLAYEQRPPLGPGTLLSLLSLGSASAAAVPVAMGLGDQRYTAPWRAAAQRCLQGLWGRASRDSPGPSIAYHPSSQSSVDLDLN
Description: FIG. 1(A-C): FIG. 1(A) Chemical structure of berberine. FIG. 1(B) HEK293 cells lacking or stably-overexpressing TGR5 were treated with increasing doses of berberine for 16 h. TGR5-reporting activity was evaluated by luciferase assay (n=8). FIG. 1(C) The ability of berberine to activate TGR5 and FXR was evaluated in comparison to the synthetic FXR agonist GW4064. Ligands were used at a concentration of […] (n=4). Statistical analysis was performed using paired t-test. **p<0.05, ***p<0.001.
(§1) FIG. 2(A) HEK293 cells lacking or overexpressing TGR5 were treated with increasing doses of berberine for 16 hours and TGR5-reporting activity was evaluated using luciferase assays. FIG. 2(B) Ability of berberine to activate metabolic nuclear receptors was evaluated in comparison to native ligands. All ligands were used at a 10 μM concentration.
To potentially identify selective TGR5 modulators via a novel strategy, we synthesized and screened a focused chemical compounds library to search for derivatives that have higher affinity and/or higher selectivity to effectively modulate TGR5 activity in vivo. A focused small chemical compound library was evaluated in in vitro TGR5 assays to search for berberine-derived agonists that have higher affinity, potency, and/or higher selectivity for TGR5. The receptor binding assay was performed by measuring the level of cyclic AMP (cAMP) using TR-FRET (time-resolved fluorescence resonance energy transfer) assay. The level of intracellular cAMP was determined with Lance kit (PerkinElmer). Lithocholic acid was used as control ligand. Z′ factor was used to validate assays. Non-linear regression curves, without constraints, was performed by using four parameter equation and GraphPad Prism Software (GraphPad Inc.) to obtain the EC50 values. All drugs tested positive with TR-FRET for TGR5 binding affinities were evaluated in cell-based assays, using HEK293 cells stably over expressing human TGR5 transfected with the cAMP-sensitive reporter plasmid pCRE-Luc. Compounds were initially tested at doses of […] and the relative fold activation on TGR5 was determined. […]

[2] = tested on: metabolic nuclear receptors; assay: Activation of metabolic nuclear receptors compared with native ligands; type: cell-based; conditions: 10 μM
Description: as §1
Our current efforts are also aimed at extending these studies in vivo to murine type II diabetic models (using high fat diet feeding) with and without the TGR5 receptor. Confirmation of the berberine effect was evaluated using q-RT-PCR to assess activated TGR5 target genes including inflammatory gene expression and deiodinase-2.

[3] = oral 1.0 g/day/person for 3 months; cited from earlier work

COc1ccc2cc3[n+](cc2c1OC)CCc1cc2c(cc1-3)OCO2 [berberine]
Hepatic lipid accumulation (DIO mice): prevent hepatic lipid accumulation
Prohormone convertase 3 and proglucagon mRNA expression (NCI-H716 cells): promoted both prohormone convertase 3 and proglucagon mRNA expression
GLP-1 release (NCI-H716 cells; in vitro): modulated GLP-1 release; also recorded: concentration-dependently stimulated GLP-1 release
Metabolic properties in db/db mice (db/db mice): insulin sensitizing as well as weight- and lipid-lowering properties
Plasma concentration / gut restriction [1]: keeps low concentration in plasma
TGR5-reporting effect in cells lacking TGR5 (TGR5; HEK293 cells lacking TGR5): lost
TGR5 activation (TGR5; HEK293 cells overexpressing TGR5, 16 h): is a ligand for the G protein-coupled receptor TGR5; also recorded: can activate the bile acid receptor TGR5
EC50 (TGR5; unpublished data, read-out: TGR5 agonist EC50): 460 nM
Activation of other metabolic nuclear receptors [2]: does not activate other metabolic nuclear receptors
Efficacy and safety in type 2 diabetes and dyslipidemia [3]: effective and safe

Reference: patent publication US10703761B2, “Bile acid receptor modulators and methods of use thereof” (City of Hope, priority 2016, dated 2020)
